Experimental findings from patent publication US20040253665A1, “Novel peptide-producing enzyme, microbe producing the enzyme and method for dipeptide synthesis using them” (AJINOMOTO CO., INC., priority 2002, published 2004) are described below.

The assay deals with peptide-producing enzyme (Mono S fraction) from Empedobacter brevis strain FERM BP-8113. Kind of assay: Enzyme substrate specificity (1)-(10), (13), (14). The conditions noted are these: oligopeptide production, amount of enzyme 0.2 units, pH 9.0, 25° C., 3 hours. More on the design: key: +: those for which production was confirmed but which were unable to be quantified due to the absence of a standard; a trace amount. The format is biochemical. The source says:
Ester specificity was examined in the case of using L-amino acid ester for the carboxy component. […] The amounts of L-Ala-L-Gln produced in this reaction are shown in Table 4 (HCl represents hydrochloride in Table 4). Peptide production was examined in the case of using L-alanine methyl ester for the carboxy component and using various L-amino acids for the amine component. […] (The “+” mark indicates those peptides for which production was confirmed but which were unable to be quantified due to the absence of a standard, while “tr” indicates a trace amount.) Peptide production was examined in the case of using various types of L-amino acid methyl esters for the carboxy component and using L-glutamine for the amine component. […] Peptide production was examined in the case of using various L-amino acid methyl esters for the carboxy component and various L-amino acids for the amine component. […] (The “tr” indicates a trace amount.) Furthermore, Tween-80 was added to the reaction system to a final concentration of 0.1% in the case of using L-Trp-OMe. (The “+” mark indicates those peptides for which production was confirmed but which were unable to be quantified due to the absence of a standard.) […] (The “tr” indicates a trace amount.) Peptide production was examined using various L-amino acid amides for the carboxy component, and various L-amino acids for the amine component. […] Peptide production was examined in the case of using various L-alanine methyl esters for the carboxy component and C-protected L-amino acids for the amine component. […] Peptide production was examined in the case of using various amino acid methyl esters for the carboxy component and methylamine for the amine component. […] Peptide production was examined in the case of using β-amino acid ester for the carboxy component or β-amino acid for the amine component. […] (The “tr” indicates a trace amount.) Oligopeptide production was examined in the case of using L-amino acid ester for the carboxy component and peptide for the amine component. […] Substrate specificity was additionally assessed using the same enzyme fraction as that used in Example 5. […] (A “+” mark indicates those for which production was confirmed but which were unable to be quantified due to the absence of a standard, while “tr” indicates a trace amount). Substrate specificity with respect to oligopeptide production was assessed using the same enzyme fraction as Example 26. […] (A “+” mark indicates those for which production was confirmed but which were unable to be quantified due to the absence of a standard, while “tr” indicates a trace amount). It should be noted that hydrochlorides were used for all of the carboxy components.

Turning to L-Ala-Gly-Gly-L-Phe-L-Met, the “Produced peptide (mM)” value is reported as “+”. For the substance L-Ala-L-Phe-L-Met, the “Produced peptide (mM)” value is recorded as “+”.
